From patent US20260199496A1, “LINKER, LINKER-CONTAINING ANTIBODY DRUG CONJUGATE, AND PREPARATION METHOD THEREFOR AND USE THEREOF” (CHENGDU CHIPSCREEN NEWWAY BIOSCIENCES CO., LTD., priority 2022, published 2026)
Where “and” joins values, the source holds several entries; their conditions need not be identical. Identical values can stand only once. Each block holds one compound with its values, some of them ahead of it.

Legend:
CT26 hPD-L1-EX cells [1] = assay: Inhibition of CT26 hPD-L1-EX cell proliferation (MTS); type: cell-based; conditions: replicate wells; for Inhibition % / OD490: 5 μM, 48 h
Protocol: (1) CT26 hPD-L1-EX cells were collected, and 20 μL was taken for cell counting. (2) The cells were resuspended to 0.5×10^5 cells/mL and 0.5×10^5 cells/mL (5 mL each). (3) The cell suspensions were respectively added to two 96-well plates at 50 μL/well, followed by overnight culture at 37° C. with 5% CO2. (4) The ADC sample was diluted according to predetermined concentrations and added to the well plates at 100 μL/well. (5) The cells were cultured at 37° C. with 5% CO2 for 48 h. (6) 50 μL of culture medium was first aspirated and discarded, and then an MTS reagent was added at 20 μL/well. The cells were cultured at 37° C. with 5% CO2 for another 1-4 h. (7) Readings were taken at 490 nm.

NCI-H292 cells = assay: Internalization in human lung cancer cell line NCI-H292; type: cell-based; conditions: NCI-H292, 150 nM, 2 h, 4 h, 22 h; FIG. 28
Protocol: (1) NCI-H292 cells were collected, and 20 µL was taken for cell counting. (2) The cells were resuspended to 6×10^6 cells/mL, and the cell suspension was added into two 1.5-mL EP tubes at 100 μL/tube. (3) Diluted antibody-drug conjugate (ADC) group and antibody group samples were added separately at 100 L/tube, achieving a final sample concentration of 150 nM. The mixtures were thoroughly mixed and then incubated at 4° C. in the dark for 1 h. (4) The mixtures were washed twice with pre-cooled PBS and centrifuged at 1200 rpm for 5 min at 4° C., and then the supernatants were discarded. (5) Complete medium was added at 300 μL/tube to resuspend the cells, and the cell suspensions were separately transferred to new EP tubes at 150 L/tube, with one tube kept at 4° C. and the other incubated at 37° C. (6) After 2 h, 4 h, and 22 h, 50 L of cell suspension was collected from each of the 4° C. and 37° C. tubes, transferred to new EP tubes, mixed with 1 mL of pre-cooled PBS, and centrifuged at 1200 rpm for 5 min at 4° C., and then the supernatants were discarded. […] (9) Pre-cooled PBS was then added at 100 L/tube to resuspend the cells, and the cell suspensions were analyzed on a machine. (10) The internalization rate was calculated using the following formula: Internalization (%)=positive rate4° C. […]

Cyno PD-L1-his = assay: SPR (Biacore T200) affinity for Cyno PD-L1-his; design: species or system cynomolgus monkey; conditions: ligand Cyno PD-L1-His, 1:1 binding model
Protocol: (§1) […] Cyno PD-L1-his was captured onto the chip surface. The antibody-drug conjugate samples and the naked antibody sample were 2-fold diluted with 1×PBST to give a total of 7 concentration points, with the sample concentrations all being 25 nM-0.39 nM. The program was set. The samples were then loaded, and the program was executed. Data were analyzed using the Biacore Evaluation Software with the 1:1 binding model for kinetic fitting. The above steps were repeated. 2 μg/mL hPD-L1-his, 5 μg/mL mPD-L1-his, and 5 µg/mL Rat PD-L1-his were captured onto the chip surface separately. The above 4 samples were 2-fold diluted with 1×PBST. […] The program was set. The samples were then loaded, and the program was executed. Data were analyzed using the Biacore Evaluation Software with the 1:1 binding model for kinetic fitting.

MC38 tumor = assay: C57BL/6J mouse MC38 tumor model, ADC vs naked antibody (18.1); type: in vivo; conditions: 10 mg/kg intraperitoneal, three times per week, day 7 post-administration
Protocol: 18.1. The specific procedures were as follows: On the day of cell inoculation, each C57BL/6J mouse was subcutaneously inoculated with 3×10^5 MC38 cells (0.1 mL/mouse). When the average tumor volume in mice reached about 70-80 mm^3, grouping was performed. A total of 24 mice were divided into 3 groups, and drug administration began on the day of grouping. The administration regimen was three times per week, and the route of administration was intraperitoneal injection. […] The vehicle control group was intraperitoneally injected with an equivalent volume of PBS solution. After the start of administration, the body weight and tumor volume were measured three times per week. The tumor volume was calculated as: tumor volume (mm^3)=0.5×long diameter of tumor×(short diameter of tumor)^2. The experiment was terminated on day 7 post-administration. All mice were euthanized, and tumor tissues were collected and weighed.

CT26 hPD-L1-EX cells [2] = assay: Inhibition of CT26 hPD-L1-EX cell proliferation (CCK8); type: cell-based; conditions: 2 days, CCK8, replicate wells; for Inhibition % / OD450: 10 μM
Protocol: (1) CT26 hPD-L1-EX cells were collected, and 20 μL was taken for cell counting. (2) The cells were resuspended to 2×10^5 cells/mL. (3) The cell suspension was added to a 96-well plate at 50 μL/well (1×10^4 cells/well), followed by overnight culture at 37° C. with 5% CO2. (4) The next day, the 96-well plate was taken out. The test sample was diluted with complete medium containing 10% FBS and then added to the plate at 50 µL/well to achieve a final sample concentration of 10 μM. The day of test sample addition was designated as day 0. The cells were cultured at 37° C. with 5% CO2 for another 2 days. (5) Day 2: The cell growth status was observed under a microscope, and then CCK8 was added at 10 μL/well. The cells were then cultured at 37° C. with 5% CO2 for another 4 h. (6) Absorbance values at 450 nm (OD450) were measured in real-time using a microplate reader.

mPD-L1-his = mPD-L1-his (Mus musculus, UniProt Q9EP73); assay: SPR (Biacore T200) affinity for mPD-L1-his; conditions: ligand mPD-L1-His, 1:1 binding model
Chain of mPD-L1-his (Q9EP73 19-290): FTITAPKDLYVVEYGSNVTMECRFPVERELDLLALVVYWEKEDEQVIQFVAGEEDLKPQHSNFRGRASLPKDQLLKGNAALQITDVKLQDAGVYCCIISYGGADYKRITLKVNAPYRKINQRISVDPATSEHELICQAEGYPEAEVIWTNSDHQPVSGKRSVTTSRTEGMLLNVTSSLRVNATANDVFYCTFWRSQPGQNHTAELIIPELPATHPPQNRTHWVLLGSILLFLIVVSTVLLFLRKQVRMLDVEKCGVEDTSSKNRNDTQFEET
Protocol: The program was set. The samples were then loaded, and the program was executed. Data were analyzed using the Biacore Evaluation Software with the 1:1 binding model for kinetic fitting. The above steps were repeated. 2 μg/mL hPD-L1-his, 5 μg/mL mPD-L1-his, and 5 g/mL Rat PD-L1-his were captured onto the chip surface separately. The above 4 samples were 2-fold diluted with 1×PBST. […] The program was set. The samples were then loaded, and the program was executed. Data were analyzed using the Biacore Evaluation Software with the 1:1 binding model for kinetic fitting.

Rat PD-L1-his = Rat PD-L1-his (Rattus norvegicus, UniProt D4AE25); assay: SPR (Biacore T200) affinity for Rat PD-L1-his; conditions: ligand Rat-PD-L1-His, 1:1 binding model
Chain of Rat PD-L1-his (D4AE25 1-290): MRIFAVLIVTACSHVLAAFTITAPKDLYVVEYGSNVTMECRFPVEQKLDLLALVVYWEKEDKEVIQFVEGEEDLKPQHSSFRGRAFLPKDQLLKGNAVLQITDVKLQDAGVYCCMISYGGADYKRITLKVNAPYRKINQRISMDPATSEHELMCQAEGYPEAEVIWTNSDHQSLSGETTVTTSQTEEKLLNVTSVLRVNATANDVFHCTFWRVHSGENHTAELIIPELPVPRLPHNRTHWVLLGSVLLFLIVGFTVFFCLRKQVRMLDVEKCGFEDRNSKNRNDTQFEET
Protocol: as §1

hPD-L1-his = hPD-L1-his (Homo sapiens, UniProt Q9NZQ7); assay: SPR (Biacore T200) affinity for hPD-L1-his; conditions: 1:1 binding model
Chain of hPD-L1-his (Q9NZQ7 19-290): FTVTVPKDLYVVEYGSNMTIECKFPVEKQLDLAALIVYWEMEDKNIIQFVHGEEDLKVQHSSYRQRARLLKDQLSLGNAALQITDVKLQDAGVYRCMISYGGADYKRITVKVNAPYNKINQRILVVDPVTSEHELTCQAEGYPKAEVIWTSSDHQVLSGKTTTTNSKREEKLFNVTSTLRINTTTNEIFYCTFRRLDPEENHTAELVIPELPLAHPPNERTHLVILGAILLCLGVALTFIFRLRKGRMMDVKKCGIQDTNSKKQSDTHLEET
Protocol: The procedures were as follows: A CM5 chip was activated with N-hydroxysuccinimide (NHS) and 1-ethyl-3-(3-dimethylaminopropyl)carbodiimide hydrochloride (EDC) at a 1:1 (v/v) ratio. Then, an anti-his antibody was immobilized, and the chip was blocked. 1 g/mL hPD-L1-his was captured onto the chip surface. […] The program was set. The samples were then loaded, and the program was executed. Data were analyzed using the Biacore Evaluation Software with the 1:1 binding model for kinetic fitting.

[3] = test system: A375-hPDL1-Luciferase cells; assay: Inhibition of A375 in co-culture with human PBMCs (luciferase); type: cell-based; conditions: PBMC:A375 E:T 5:1, Matrigel, 6 days
Protocol: Cryopreserved PBMCs were taken out from a liquid nitrogen tank and added to 8 mL of pre-heated RPMI 1640 medium, and the mixture was centrifuged at 500 g for 10 min. The supernatant was discarded, and the PBMCs were resuspended in a small amount of RPMI 1640 medium. Then, the cell suspension was 10-fold diluted, and 20 μL of dilution was taken for cell counting. The cells were resuspended to 5E6 cells/mL. The A375-hPDL1-Luciferase cell suspension was collected, and 20 μL was taken for cell counting. The cells were resuspended to 1E6 cells/mL. The PBMC and A375-hPDL1-Luciferase cell suspensions were mixed at equal volumes to prepare a cell mixture with an E:T ratio of 5:1, and the mixture was adjusted to a total volume of 1500 L using RPMI 1640 complete medium. Matrigel was thawed on ice, and 1500 L of the thawed Matrigel was mixed with the cell mixture. The resulting mixture was added to a black 384-well plate at 20 μL/well, which was then placed at 37° C. for 10 min for solidification. […] The dilutions were added to the 384-well plate at 30 μL/well, and the cells were cultured at 37° C. with 5% CO2 for 6 days. Then, the 384-well plate was taken out, and Bio-Lite Luciferase Assay System was added at 20 μL/well. The mixture was incubated for 5-10 min and then assayed using a multi-mode microplate reader. The results are shown in FIG. 31, FIG. 32, and Table 7.

[4] = Table 3-1, ligand hPD-L1-His captured

Kd (Cyno PD-L1-his): 0.0826 nM
kd (Cyno PD-L1-his): 0.00013 s⁻¹
ka (mPD-L1-his): 1.76e+06 M⁻¹ s⁻¹
kd (mPD-L1-his): 0.000119 s⁻¹
ka (Rat PD-L1-his): 2.86e+06 M⁻¹ s⁻¹
kd (Rat PD-L1-his): 0.000981 s⁻¹
ka (hPD-L1-his; [4]): 1.26e+06 M⁻¹ s⁻¹
kd (1/s) (hPD-L1-his; [4]): <10^−5 1/s
ka (hPD-L1-his; Table 3-2, ligand hPD-L1-His): 2.46e+06 M⁻¹ s⁻¹
kd (hPD-L1-his; Table 3-2, ligand hPD-L1-His): <1e-05 s⁻¹
Compound: atezolizumab [Ate antibody]
Inhibition % (CT26 hPD-L1-EX cells [1]): 4.42% and 5.66%
OD490 (CT26 hPD-L1-EX cells [1]): 1.1715 and 1.1587
tumor cell internalization rate (NCI-H292 cells): increased over time
ka (Cyno PD-L1-his): 1.58e+06 M⁻¹ s⁻¹
tumor growth inhibition rate TGI (%) (MC38 tumor): 16.26%
tumor volume (MC38 tumor): 701.09 mm^3
Inhibition % (CT26 hPD-L1-EX cells [2]): 13.08% and 4.39% and 10.94%
OD450 (CT26 hPD-L1-EX cells [2]): 2.1282 and 1.9824 and 1.9349

IC50 [3]: 823 nM
Compound: Nc1cc(F)ccc1NC(=O)c1ccc(CNC(=O)/C=C/c2cccnc2)cc1 [Chidamide, reference compound]
Inhibition % (CT26 hPD-L1-EX cells [1]): 11.73%
OD490 (CT26 hPD-L1-EX cells [1]): 1.0283 and 1.0841
inhibition at 5 µM (CT26 hPD-L1-EX cells [1]; Mus musculus, CT26, 48 h): 16.1%
Inhibition % (CT26 hPD-L1-EX cells [2]): 14.58% and 12.16%
OD450 (CT26 hPD-L1-EX cells [2]): 1.9014 and 1.9554 and 1.7934
inhibition at 10 µM (CT26 hPD-L1-EX cells [2]; Mus musculus, CT26, 48 h): 19.4%
